Broadly, the logP is the decadic logarithm of the partition coefficient of the neutral form, usually between octanol and water. Higher therefore signals higher lipophilicity.

Data set [1] has as its target T1, α1β2γ2 GABAARs (rat α1, rat β2 and human γ2S) (UniProt P18507+P62813+P63138).
T1 construct: expressed in transfected cells; host or cells: Xenopus laevis oocytes
In words: Two-electrode voltage clamp of α1β2γ2 GABAAR-expressing Xenopus oocytes. Format: cell-based. The text has this:
Purple and gray bars indicate periods of presentation of UV light (purple) and high-intensity visible light (High-Vis) (gray), respectively. […] These amplitude determination conditions are denoted by numbers beneath the waveform in FIG. 35d.
In each of the MPC088 experiments, the cis-dominant form was generated by UV light during static bathing. […] Numbers beneath the waveform in FIG. 2(c) denote amplitude determination conditions for that experiment.
Oocytes expressing α1β2γ2 receptors (rat α1, rat β2 and human γ2S) were prepared and studied by two-electrode voltage-clamp recording^58 (holding potential: −70 mV; amplifier: GeneClamp500B; Axon Instruments, Foster City, Calif.). Unless otherwise indicated, oocytes were superfused with Ringer solution (physiological saline) at a rate of ˜1 mL/min. The experiments of FIGS. 35d-e, 36c-e and 47 involved periods of static bathing, i.e., halted superfusion. The γ2(A79C) subunit was prepared by site-directed mutagenesis. Oocyte electrophysiological experiments were carried out in room light. A UV light-emitting diode (peak wavelength: 365 nm; Hamamatsu Photonics, Japan) and a microscope illuminator (white light; Schott Fostec, Auburn, N.Y.) provided UV and visible stimulating light. As measured at the position of the oocyte, the intensity of the UV light at 365 nm was 220 μW/mm^2. At 440 nm, the nominal strength of the visible (white) light (referred to as high-intensity visible light) was 28 μW/mm^2, and that of the ambient room illumination was 0.045 μW/mm^2. In all experiments, low-intensity visible light from the microscope illuminator (3 μW/mm^2 at 440 nm) was present at all times except those involving high-intensity visible illumination. Electrophysiological data were obtained using Clampex 8.2 (Axon Instruments), analyzed using Clampfit 10.0 (Axon Instruments) and OriginPro7.5 (OriginLab, Northampton, Mass.). All statistical analysis employed a two-sample t-test.
For orientation: Two-electrode voltage clamp is typically applied to oocytes expressing channels or transporters.

For a further data set, the target named is T2, α1β2γ2 GABAARs (UniProt P18507+P62813+P63138).
T2 construct: expressed in transfected cells; host or cells: Xenopus laevis oocytes
In kind it is binding. The conditions noted are these: 1 μM competitor added to 10 μM 23 and 3 μM GABA. The text has this:
Tomlinson and Rosenthal, the linear chain of 22 is further extended by an amide-linked PEG5000 that is terminated by biotin. […] Bright-field images of the (opaque) oocytes illustrate the focus of the oocyte border during fluorescence microscopy.

Data set [2] relates to GABAARs of cerebellar PNs. In words: Test for direct agonist activity on Purkinje neurons (recirculating MPC088, no exogenous GABA). In kind it is cell-based, mouse. The conditions noted are these: 30 μM gabazine added to 30 μM MPC088. The protocol: To test for direct agonist activity of MPC088 on PNs, cerebellar slices were perfused with recirculating 30 μM MPC088 (the maximal MPC088 concentration that could be reliably maintained solubilized in bicarbonate-buffered solution). MPC088 was converted to cis-dominant form by a 2-min exposure to UV light (LED, 365 nm/160 mW, Mouser, Inc., Mansfield, Tex.; LED driver, 700 mA BuckPuck DC Driver, Quadica Developments, Inc., Brantford, Ontario, Canada), before its dilution into the recirculating external solution. The same LED was then used to continuously UV-illuminate the recirculating solution for the duration of the experiment. Whole-cell voltage clamp recordings were obtained from PNs and determined the change in membrane current produced by alternating blue and UV illumination of the slice, as in the FIG. 40 experiments. […] The temporal sequence of illumination differed among the experiments (e.g., only the cell in a received multiple blue/UV exposures), but the data plotted are the amplitudes from the blue to UV transition (in the case of the cell in a, this is the blue/UV transition from the first of the three exposures). Yellow-filled data points indicate results from the experiment in a. Each data point is the average obtained from 4-10 consecutive recordings. […] Error bars represent the SEM (FIG. 42b).

The next data set concerns the target T3, α4β3δ GABAAR (Homo sapiens, UniProt P28472+P48169).
T3 construct: expressed in transfected cells; host or cells: Xenopus oocytes
In words: Two-electrode voltage clamp of α4β3δ GABAAR-expressing oocytes. In kind it is cell-based. The following applies: 200 μM propofol and 50 nM GABA. The text has this:
Propofol is known to modulate GABAA receptors that contain a β subunit. […] Data in each group was obtained from 4 oocytes.

In data set [3] the test system is GABAARs of cerebellar PNs. In words: Whole-cell voltage clamp of cerebellar Purkinje neurons in slices, GABA-evoked currents with UV/blue light. In kind it is cell-based, mouse. The following applies: 10 μM GABA plus 300 μM propofol.
A short description of another data set: Hydrophobicity (log P). Format: physicochemical.

Turning to `CN1C(=O)CN=C(c2ccccc2)c2cc(Cl)ccc21` [diazepam, reference compound], the “potentiation factor of the 3 μM GABA response” value in data set [1] was 1.92±0.36. Besides, the “effect on fluorescent border from binding of 23 (competition)” value at α1β2γ2 GABAARs is “virtually eliminated”.

As for `COc1ccc(-c2ccc(=N)n(CCCC(=O)O)n2)cc1` [gabazine, reference compound], the “effect of antagonist on the MPC088-elicited response” value in data set [1] (picrotoxin 100 μg, gabazine 30 μg, bicuculline 100 μM (so in the source)) was “not sensitive”. Besides, the “average current remaining relative to the pre-gabazine current” value in data set [2] is on record as 11±3%.

As for `CC(C)c1cccc(C(C)C)c1O` [propofol, reference compound], the “maximum current of direct activation relative to the 100 μM GABA response” value in data set [1] is on record as “about 40%”. In addition, the “response relative to the saturating GABA-alone response” value at α4β3δ GABAAR was determined as 1.2±0.1 fold. Moreover, the “light-induced current change” value in data set [3] is “little or no light-induced current change”. The logP in “Hydrophobicity (log P)” was about 4.
